Values belong to the compound of their own block, whether it stands above or below them.
Key:
[1] = biological target: UL16-binding protein 1 (ULBP1) on monocytes (human) (UniProt Q9BZM6); test: cell-based or functional assay
[2] = biological target: MHC class I polypeptide-related sequence B (MICB) on monocytes (human) (UniProt Q29980); test: cell-based or functional assay
[3] = tested on: U87; test: U87 uptake of fluorescently labeled LDH5, flow cytometry; assay type: cell-based
Method: FIG. 26. U87 uptake. […] Fluorescently labeled LDH5 and Transferrin were pre-incubated with anti-LDHa at equilmolar concentrations. The antibody protein combination were then fed to U87 for 30 min. Cells were then trypsinized, acid washed, fixed in 2% PFA. Fluorescence intensity was obtained by flow cytometry. Anti-LDHa blocks uptake by approximately 50%, but has no effect on Transferrin uptake. N=2, p<0.05.
FIG. 27. U87 uptake. […] Fluorescently labeled LDH5 and Transferrin were incubated with U87 in the presence or absence of 20 mM oxamate for 30 min. Cells were then trypsinized, acid washed, fixed in 2% PFA. Fluorescence intensity was obtained by flow cytometry. N=1.
FIG. 28. U87 uptake. […] Fluorescently labeled LDH5 and Transferrin were incubated with U87 in the presence or absence of equimolar MDH for 30 min. Cells were then trypsinized, acid washed, fixed in 2% PFA. Fluorescence intensity was obtained by flow cytometry. N=1.
FIG. 29. U87 uptake. […] Cells were pre-incubated with 30 uM Dyngo 4a or 18 uM Pitstop. Fluorescently labeled LDH5 was then added for 30 min. Cells were then trypsinized, acid washed, fixed in 2% PFA. Fluorescence intensity was obtained by flow cytometry.
Experimental wells were pulsed with 10 ug/mL LDH-A488 for 30 min or 24 hours as indicated (control wells received no LDH) at 37° C. Cells were treated for 2 min with 0.5M acetic acid+150 mM NaCl (pH 2.5), followed by 4 subsequent washes in RPMI+10% FBS. […] (See FIGS. 26-29).

[4] = tested on: Tumor cells; test: LDH-5 internalization by tumor cells, flow cytometry (FIGS. 16-19); assay type: cell-based; conditions: sodium oxamate, FIG. 18
Method: FIG. 17. Tumor cells internalize LDH-5, which can be reduced by antibody blocking. 10 ug/ml of LDH5 specific monoclonal antibody was added to cells 1 hour prior to culture with LDH5 as described above and evaluated for internalization using flow cytometry to evaluate fluorescence.
FIG. 19. LDH-5 internalization is receptor mediated and Clathrin dependent. LDH5 internalization is reduced with receptor mediated endocytosis inhibitors.
LDH5 internalization is reduced with receptor mediated endocytosis inhibitors. This supports that internalization is mediated by a specific receptor, as opposite to bulk phagocytosis.

[5] = tested on: monocytes from healthy donors; test: NKG2D ligand (MICA, MICB, ULBP-1) mRNA induction in monocytes from healthy donors (MHD), qPCR; assay type: cell-based, human; conditions: U87 supernatant with sodium oxamate (100 mM in FIG. 2 panel E; 20 mM in the LDH inhibition method); 18 h; qPCR
Source text: FIG. 2. Biochemical purification of tumor-derived Lactate Dehydrogenase, expression in glioma cell lines and verification of LDH-mediated induction of NKG2D ligands on monocytes. (Panel A) Protein purification strategy. […] of U87 glioblastoma cell line supernatant were subjected to ammonium sulfate precipitation. Active fractions were passed over a phenyl Sepharose column and active fractions were then subjected to size exclusion (Superdex 200), followed by ion exchange (MonoS) before Mass Spectroscopy (MS) analysis. (Panel B) Following separation by chromatography, fractions were dialyzed into PBS and cultured with MHD (healthy monocytes) for 18 hours. Whole cell mRNA was reverse transcribed, and induction of MICB and ULBP-1 was analyzed relative to media alone controls. Western blot analysis using a monoclonal antibody to LDH-5 (ab101562) was performed on […] of total protein to confirm the presence of LDH-5 in the active fractions. (Panel C) mRNA isolated from PBMC of healthy donors, 293T cells (as negative controls), and U87, U251, and SF767 glioma cell lines were analyzed for expression of LDHA and LDHB by qPCR. (Panel D) A 1:10 dilution of fresh, unfrozen glioblastoma cell line supernatants was analyzed for total LDH enzymatic activity and expressed as OD 495 nm. (Panel E) Validation of LDH induction of NKG2D ligands in monocytes. Six hundred twenty five U/L of purified, native LDH-5, fresh U87 supernatant, or fresh U87 supernatant in the presence of 100 mM sodium oxamate (NaOx) were cultured with MHD. Eighteen hours later, mRNA was isolated and analyzed for MICA, MICB, and ULBP-1 by qPCR. Values represent induction relative to MHD cultured in media alone. (Panel F) Fresh U87 supernatant, 625 U/L of purified, native LDH-5, LDH-5+0.5 mM Pyruvate (Pyr), or LDH-5+0.5 mM pyruvate and 100 mM NaOx were cultured with MHD. Eighteen hours later, mRNA was isolated and analyzed for MICA, MICB and ULBP-1 by qPCR. Values represent induction relative to MHD cultured in media alone. (Panel G) MHD were cultured with native LDH-5 isolated from liver cells. Eighteen hours later, MICB (black bars) and ULBP-1 (gray bars) were measured by qPCR. (Panel H) Expression of NKG2D and NKp46 on primary human NK cells following a 12 hour incubation with LDH (50 ug/mL) or lactate (20 mM). Cells were surface stained with antibodies directed against CD3, CD56, NKG2D, and NKp46 and analyzed by flow cytometry. The expression level of NKG2D and NKp46 are plotted against CD56. (Panel I) Expression of CD107a on primary human NK cells following IL-2 (1000 U/ml) activation and a 6 hour incubation with LDH (50 ug/mL) or lactate (20 mM). Cells were surface stained with antibodies directed against CD3, CD56, and CD107a and analyzed by flow cytometry. Representative data are shown in the top panels, a summary of percent CD107a+NK cells is shown below. (Panel J) 293T cells were transiently transfected with a pcDNA3.1 (−) vector encoding either LDHA or LDHB, or both constructs. Supernatant was then cultured with CD14-positively selected MHD. Eighteen hours later, MICB and ULBP-1 were measured by qPCR. Values represent induction relative to monocytes cultured in media alone. *P<0.05, **P<0.01.
FIG. 21. Purified native LDH5 or LDH1 was cultured with monocytes from healthy donors. Eighteen hours later, MICB and ULBP-1 were measured by qPCR. Values represent induction relative to monocytes cultured in medium alone. […]

[6] = tested on: monocytes, or monocyte derived macrophages; test: Uptake of fluorescently labeled LDH5 by monocytes / monocyte derived macrophages (CD14+ cells), flow cytometry; assay type: cell-based, human; conditions: monocyte derived macrophages pre-incubated with 25 uM chlorpromazine for 30 min, labeled LDH5 for a further 30 min; N=2
Method: FIG. 23. […] Fluorescently labeled LDH5 was pre-incubated with anti-LDHa at equilmolar concentrations. The antibody protein combination was then fed to monocytes, or monocyte derived macrophages for 30 min. Cells were then trypsinized, acid washed, fixed in 2% PFA. Fluorescence intensity was obtained by flow cytometry. Anti-LDHa blocks uptake by approximately 50%. Macrophages N=1, Monocytes N=2.
FIG. 24. […] Monocyte derived macrophages were pre-incubated with 25 uM chlorpromazine for 30 min. Fluorescently labeled LDH5 was then added for an additional 30 min. Cells were then trypsinized, acid washed, fixed in 2% PFA. Fluorescence intensity was obtained by flow cytometry. N=2
FIG. 25. […] Fluorescently labeled LDH5 was incubated with U87 in the presence or absence of equimolar MDH for 30 min. Cells were then trypsinized, acid washed, fixed in 2% PFA. Fluorescence intensity was obtained by flow cytometry. N=2.
In an experiment utilizing the antibody with LDH5 in serum, the LDH5 complexed to the antibody was added to macrophages and to a sample of monocytes. […] Monocyte derived macrophages were pre-incubated with 25 uM chlorpromazine for 30 min. […] Fluorescence intensity was obtained by flow cytometry. […] Fluorescence intensity was obtained by flow cytometry. Cells exposed to LDH5-A488 were compared to cells without and amount of fluorescence was determined to represent amount of LDH5 inside of the cell.

[7] = tested on: primary human NK cells; test: NKG2D expression and CD107a degranulation of primary human NK cells after incubation with LDH or lactate; assay type: cell-based; conditions: LDH 50 ug/mL or lactate 20 mM; 12 hour (NKG2D, NKp46) or 6 hour after IL-2 (CD107a)
Source text: FIG. 2. Biochemical purification of tumor-derived Lactate Dehydrogenase, expression in glioma cell lines and verification of LDH-mediated induction of NKG2D ligands on monocytes. (Panel A) Protein purification strategy. […] of U87 glioblastoma cell line supernatant were subjected to ammonium sulfate precipitation. Active fractions were passed over a phenyl Sepharose column and active fractions were then subjected to size exclusion (Superdex 200), followed by ion exchange (MonoS) before Mass Spectroscopy (MS) analysis. (Panel B) Following separation by chromatography, fractions were dialyzed into PBS and cultured with MHD (healthy monocytes) for 18 hours. Whole cell mRNA was reverse transcribed, and induction of MICB and ULBP-1 was analyzed relative to media alone controls. […] (Panel C) mRNA isolated from PBMC of healthy donors, 293T cells (as negative controls), and U87, U251, and SF767 glioma cell lines were analyzed for expression of LDHA and LDHB by qPCR. (Panel D) A 1:10 dilution of fresh, unfrozen glioblastoma cell line supernatants was analyzed for total LDH enzymatic activity and expressed as OD 495 nm. […] Eighteen hours later, mRNA was isolated and analyzed for MICA, MICB, and ULBP-1 by qPCR. […] Eighteen hours later, mRNA was isolated and analyzed for MICA, MICB and ULBP-1 by qPCR. […] Eighteen hours later, MICB (black bars) and ULBP-1 (gray bars) were measured by qPCR. […]

Sequence of UniProt Q29980 (Q29980 23-383): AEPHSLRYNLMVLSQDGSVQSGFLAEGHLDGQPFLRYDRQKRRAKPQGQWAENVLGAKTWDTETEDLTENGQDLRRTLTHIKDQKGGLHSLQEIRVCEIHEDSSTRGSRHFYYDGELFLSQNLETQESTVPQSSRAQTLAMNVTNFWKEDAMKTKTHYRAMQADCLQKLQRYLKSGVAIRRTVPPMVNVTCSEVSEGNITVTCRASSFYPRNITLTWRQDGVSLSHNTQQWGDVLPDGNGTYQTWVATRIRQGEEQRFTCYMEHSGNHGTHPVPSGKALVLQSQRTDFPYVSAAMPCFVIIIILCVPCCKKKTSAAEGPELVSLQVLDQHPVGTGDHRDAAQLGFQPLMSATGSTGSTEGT
Sequence of UniProt Q9BZM6 (Q9BZM6 26-216): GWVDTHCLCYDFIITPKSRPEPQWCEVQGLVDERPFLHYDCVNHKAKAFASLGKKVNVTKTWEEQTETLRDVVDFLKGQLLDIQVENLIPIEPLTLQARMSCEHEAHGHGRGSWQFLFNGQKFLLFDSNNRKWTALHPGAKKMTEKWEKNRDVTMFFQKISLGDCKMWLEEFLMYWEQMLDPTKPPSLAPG

- IFN-γ production by degranulating NK cells [1]: 20.2%
- degranulation of IL-2-activated NK cells [1]: 75.3%
- IFN-γ production by degranulating NK cells [2]: 20.2%
- degranulation of IL-2-activated NK cells [2]: 75.3%
Compound: Natural killer group 2, member D (NKG2D) receptor on NK cells (from UniProt P26718 1-216)

Compound: O=C1N=C(NS(=O)(=O)c2cccc3ccccc23)SC1=Cc1ccc(Br)cc1 [Pitstop]
- LDH5 uptake, effect in words ([3]; U87 pre-incubated with 18 uM Pitstop, labeled LDH5 for 30 min): block LDH5 uptake

Compound: NC(=O)C(=O)[O-].[Na+] [Sodium oxamate, sodium oxamate, reference compound]
- LDH5 uptake, effect in words ([3]; U87, 20 mM oxamate, 30 min, N=1): blocks LDH5 uptake
- LDH-5 internalization in tumor cells, effect in words [4]: reduces internalization
- Ability of U87 supernatant to induce NKG2D ligands (mRNA) on MHD [5]: significantly reduced

Compound: O=C(N/N=C/c1cc(O)c(O)cc1O)c1cc2ccccc2cc1O [Dyngo 4a]
- LDH5 uptake, effect in words ([3]; U87 pre-incubated with 30 uM Dyngo 4a, labeled LDH5 for 30 min): block LDH5 uptake

Compound: CN(C)CCCN1c2ccccc2Sc2ccc(Cl)cc21 [chlorpromazine]
- LDH5 uptake, effect in words [6]: blocks LDH5 uptake

Compound: CC(O)C(=O)O (centres unmarked) [lactate]
- NK cell NKG2D expression or degranulation [7]: neither lactate nor LDH-5 alone directly impacted
